The experiment concerns the target T1, 5-LOX (Homo sapiens, UniProt P09917).
T1 sequence (P09917 1-674): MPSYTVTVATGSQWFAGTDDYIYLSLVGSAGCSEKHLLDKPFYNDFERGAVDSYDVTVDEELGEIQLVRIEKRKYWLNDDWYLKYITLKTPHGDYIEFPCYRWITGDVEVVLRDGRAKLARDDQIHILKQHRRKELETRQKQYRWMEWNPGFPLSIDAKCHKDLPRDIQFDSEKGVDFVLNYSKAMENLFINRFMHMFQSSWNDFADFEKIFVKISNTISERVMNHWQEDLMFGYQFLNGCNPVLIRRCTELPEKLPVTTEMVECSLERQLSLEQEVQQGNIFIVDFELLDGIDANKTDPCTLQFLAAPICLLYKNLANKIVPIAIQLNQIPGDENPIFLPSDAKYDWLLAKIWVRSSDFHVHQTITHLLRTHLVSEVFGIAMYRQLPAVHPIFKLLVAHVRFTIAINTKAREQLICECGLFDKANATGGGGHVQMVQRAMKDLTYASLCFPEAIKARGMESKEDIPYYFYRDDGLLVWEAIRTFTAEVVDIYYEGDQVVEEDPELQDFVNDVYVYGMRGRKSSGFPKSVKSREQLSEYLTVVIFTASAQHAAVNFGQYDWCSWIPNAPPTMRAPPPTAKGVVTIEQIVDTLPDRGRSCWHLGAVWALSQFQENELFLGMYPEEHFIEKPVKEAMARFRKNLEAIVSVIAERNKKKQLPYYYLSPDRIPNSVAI
Nature of the experiment: 5-LOX inhibition (5-LOX I50, Table I). In kind it is biochemical.
In the case of `CCCCCC(O)c1ccc(OCc2ccc3ccccc3n2)cc1` (stereo not shown), it took 350 nM to reach half-maximal inhibition (IC50). Then `CCCCCC(C)(O)c1cccc(OCc2ccc3ccccc3n2)c1` (stereo not shown), with 100 nM; and `CCCCCC(C)(O)c1cccc(OCc2ccccn2)c1` (stereo not shown), with 300 nM.

On to `CCCCCC(=O)c1cccc(OCc2ccc3ccccc3n2)c1`, for which inhibition was half-maximal at 150 nM (IC50).

With `CCCCCC(NC)c1cccc(OCc2ccccn2)c1` (stereo not shown), the IC50 (commonly the concentration that gives 50% inhibition) is 2200 nM. Then `CC(=O)CC(O)c1cccc(OCc2ccc3ccccc3n2)c1` (stereo not shown), with 180 nM; and `OC(CCCCCOc1ccccc1)c1cccc(OCc2ccc3ccccc3n2)c1` (stereo not shown), with 600 nM; and `CCCCCC(O)c1cccc(OCc2cccc(C(=O)O)n2)c1` (stereo not shown), with 1900 nM. As for `CCCCC(C)C(O)c1cccc(OCc2ccc3ccccc3n2)c1` (stereo not shown), the figure is 200 nM; as for `CCCCC=Cc1cccc(OCc2ccc3ccccc3n2)c1` [3-(CHCHC4 H9), 2-[3-(1-Hexenyl)phenoxymethyl]quinoline], 2400 nM; as for `CCCCC(C)(C)C(O)c1cccc(OCc2ccc3ccccc3n2)c1` (stereo not shown), 270 nM. `CCCCC(C)(C)C(C)(O)c1cccc(OCc2ccc3ccccc3n2)c1` (stereo not shown) came in with an IC50 of 270 nM.

The molecule `CC(O)(CCCCCOc1ccccc1)c1cccc(OCc2ccc3ccccc3n2)c1` (stereo not shown) yielded an IC50 of 800 nM. Consider `CCCCCC(O)c1cccc(OCc2cccnc2)c1` (stereo not shown), for which the IC50 is 3000 nM. On to `OC(CCCCCOc1cccc(Cl)c1)c1cccc(OCc2ccc3ccccc3n2)c1` (stereo not shown), for which half-maximal inhibition (IC50) required 600 nM.

`CCCCCC(O)c1cccc(OCc2cccc(C#N)n2)c1` (stereo not shown): 30000 nM corresponded to half-maximal inhibition (IC50).

As for `CCCCCC(O)c1cccc(OCc2ccccn2)c1` (stereo not shown), half-maximal inhibition (IC50) was put at 500 nM. As for `CCCCCC(O)c1cccc(OCc2ccncc2)c1` (stereo not shown), the figure is 3000 nM; as for `CCCCCC(O)c1ccc(Oc2ccc3ccccc3n2)cc1` (stereo not shown), 350 nM.

These data come from patent publication US4794188A, “Certain unsymmetrical quinolinyl ethers having anti-inflammatory and anti-allergic activity” (USV Pharmaceutical Corporation, priority 1985, dated 1988).
